Measured values: patent US11427548B2 (Arvinas Operations, Inc., priority 2015, dated 2022)
Where two headings read alike, the source gives them in different places. Values belong to the molecule of their own block, whether it stands above or below them.

Target: T1, Androgen Receptor (Homo sapiens, UniProt P10275)
T1 construct: endogenous in cells; host or cells: VCaP cells
T1 sequence (P10275 1-920): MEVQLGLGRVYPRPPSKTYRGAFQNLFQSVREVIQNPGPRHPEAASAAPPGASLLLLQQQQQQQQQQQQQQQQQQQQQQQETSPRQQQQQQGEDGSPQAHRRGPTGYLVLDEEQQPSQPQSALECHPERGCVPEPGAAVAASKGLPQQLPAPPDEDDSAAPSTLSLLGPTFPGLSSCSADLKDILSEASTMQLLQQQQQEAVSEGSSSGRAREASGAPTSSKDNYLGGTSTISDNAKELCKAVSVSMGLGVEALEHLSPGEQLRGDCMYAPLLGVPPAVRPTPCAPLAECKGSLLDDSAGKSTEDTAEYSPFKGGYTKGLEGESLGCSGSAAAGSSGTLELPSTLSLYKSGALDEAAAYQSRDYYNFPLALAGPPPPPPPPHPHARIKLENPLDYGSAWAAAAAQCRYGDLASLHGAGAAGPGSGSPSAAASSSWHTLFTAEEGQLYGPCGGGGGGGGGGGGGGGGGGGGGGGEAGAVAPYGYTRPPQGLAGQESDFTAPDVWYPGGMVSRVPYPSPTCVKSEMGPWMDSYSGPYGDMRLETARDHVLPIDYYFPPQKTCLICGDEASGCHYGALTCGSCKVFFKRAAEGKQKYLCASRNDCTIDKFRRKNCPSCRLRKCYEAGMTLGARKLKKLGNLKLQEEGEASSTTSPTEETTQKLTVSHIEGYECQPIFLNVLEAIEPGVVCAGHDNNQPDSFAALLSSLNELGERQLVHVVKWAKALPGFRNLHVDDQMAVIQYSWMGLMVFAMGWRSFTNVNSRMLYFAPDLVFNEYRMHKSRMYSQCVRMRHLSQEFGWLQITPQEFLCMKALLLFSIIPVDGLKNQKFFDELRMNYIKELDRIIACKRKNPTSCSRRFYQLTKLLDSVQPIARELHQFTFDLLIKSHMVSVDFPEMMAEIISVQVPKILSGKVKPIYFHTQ
Experiment: Androgen Receptor ELISA assay (PathScan AR ELISA) in VCaP cells: AR degradation, Dmax and DC50
Format: cell-based
Procedure, shortened: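 VCaP cells, 30,000/well, grown ≥3 days in phenol red-free RPMI with 5% charcoal-stripped FBS; compound added in 0.1% DMSO with 0.1 nM R1881, 7 half-log doses, 24 h. Lysate AR quantified by PathScan sandwich ELISA, HRP/TMB read at 450 nm, giving DC50 and Dmax.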

[1] = VCaP cells; Table 36; read-out: VCaP DC50
[2] = VCaP, VCaP cells; Table 36; read-out: VCaP Dmax (%)
[3] = VCaP cells; Table 35; read-out: VCaP DC50
[4] = VCaP, VCaP cells; Table 35; read-out: VCaP Dmax (%)
[5] = read-out: VCaP DC50; concentration that caused 50% Androgen Receptor degradation, VCaP cells (Table 32)

DC50 [1]: < 50 nM
Dmax [2]: > 71%
SMILES: Cc1ncsc1-c1ccc(C(CO)NC(=O)[C@@H]2C[C@@H](O)CN2C(=O)[C@@H](NC(=O)CCC(F)(F)CN2CCN(c3ccc(C(=O)N[C@H]4C(C)(C)[C@H](Oc5ccc(C#N)c(Cl)c5)C4(C)C)cn3)CC2)C(C)(C)C)cc1 (stereo partly drawn) [Example 800, N-((1r,3r)-3-(3-chloro-4-cyanophenoxy)-2,2,4,4-tetramethylcyclobutyl)-6-(4-(2,2-difluoro-5-(((S)-1-((2S,4R)-4-hydroxy-2-(((R)-2-hydroxy-1-(4-(4-methylthiazol-5-yl)phenyl)ethyl)carbamoyl)pyrrolidin-1-yl)-3,3-dimethyl-1-oxobutan-2-yl)amino)-5-oxopentyl)piperazin-1-yl)nicotinamide]

DC50 [3]: < 50 nM
Dmax [4]: 51 to 70%
SMILES: CC(C)(C)[C@H](NC(=O)CNCCOc1ccc(-c2ccc(C(=O)N[C@H]3C(C)(C)[C@H](Oc4ccc(C#N)c(Cl)c4)C3(C)C)cc2)cc1)C(=O)N1C[C@H](O)C[C@H]1C(=O)NCc1ccc(C#N)cc1 [Example 501]

SMILES: CC(C)(C)[C@H](NC(=O)COCCCCOc1ccc(-c2ccc(N3C(=S)N(c4ccc(C#N)c(Cl)c4)C(=O)C34CCC4)cc2)cc1)C(=O)N1C[C@H](O)C[C@H]1C(=O)NCc1ccc(-c2cnco2)cc1 [Example 124, (2S,4R)-1-[(2S)-2-{2-[4-(4-{4-[7-(3-chloro-4-cyanophenyl)-8-oxo-6-sulfanylidene-5,7-diazaspiro[3.4]octan-5-yl]phenyl}phenoxy)butoxy]acetamido}-3,3-dimethylbutanoyl]-4-hydroxy-N-{[4-(1,3-oxazol-5-yl)phenyl]methyl}pyrrolidine-2-carboxamide]
Dmax (VCaP, read-out: VCaP Dmax (%)): 51 to 70%
DC50 [5]: < 50 nM

SMILES: Cc1ncsc1-c1ccc(CNC(=O)[C@@H]2C[C@@H](O)CN2C(=O)[C@@H](NC(=O)COCCC[C@@H](C)Oc2ccc(-c3ccc(N4C(=S)N(c5ccc(C#N)c(C(F)(F)F)c5)C(=O)C4(C)C)cc3)cc2)C(C)(C)C)cc1 [Example 141, (2S,4R)-1-[(2S)-2-(2-{[(4S)-4-[4-(4-{3-[4-cyano-3-(trifluoromethyl)phenyl]-5,5-dimethyl-4-oxo-2-sulfanylideneimidazolidin-1-yl}phenyl)phen-oxy]pentyl]oxy}acetamido)-3,3-dimethylbutanoyl]-4-hydroxy-N-{[4-(4-methyl-1,3-thiazol-5-yl)phenyl]methyl}pyrrolidine-2-carboxamide]
Dmax (VCaP, read-out: VCaP Dmax (%)): > 71%
DC50 [5]: < 50 nM

DC50 [1]: < 50 nM
Dmax [2]: 51 to 70%
SMILES: Cc1ncsc1-c1ccc([C@H](C)NC(=O)[C@@H]2C[C@@H](O)CN2C(=O)[C@@H](c2cc(N3CCN(CCCc4ccc(C(=O)N[C@H]5C(C)(C)[C@H](Oc6ccc(C#N)c(Cl)c6)C5(C)C)cc4)CC3)no2)C(C)C)cc1 [Example 797, (2S,4R)-1-((R)-2-(3-(4-(3-(4-(((1r,3r)-3-(3-chloro-4-cyanophenoxy)-2,2,4,4-tetramethylcyclobutyl)carbamoyl)phenyl)propyl)piperazin-1-yl)isoxazol-5-yl)-3-methylbutanoyl)-4-hydroxy-N-((S)-1-(4-(4-methylthiazol-5-yl)phenyl)ethyl)pyrrolidine-2-carboxamide]

DC50 (VCaP cells; Table 34; read-out: VCaP DC50): < 50 nM
Dmax (VCaP, VCaP cells; Table 34; read-out: VCaP Dmax (%)): 51 to 70%
SMILES: Cc1ncoc1-c1ccc(CNC(=O)[C@@H]2C[C@@H](O)CN2C(=O)[C@@H](NC(=O)COCCCOCCCCOc2ccc(N3C(=S)N(c4cnc(C#N)c(Cl)c4)C(=O)C3(C)C)cc2)C(C)(C)C)cc1 [Example 338]

DC50 [3]: > 501 nM
Dmax (VCaP, read-out: VCaP Dmax (%), VCaP cells; Table 35): < 25%
SMILES: CC(C)(C)[C@H](NC(=O)COCCCCCNc1ccc(C(=O)N[C@H]2C(C)(C)[C@H](Oc3ccc(C#N)c(Cl)c3)C2(C)C)cc1)C(=O)N1C[C@H](O)C[C@H]1C(=O)NCc1ccc(-c2nnn[nH]2)cc1 [Example 518]

DC50 [1]: < 50 nM
Dmax [2]: > 71%
SMILES: Cc1ncsc1-c1ccc(C(CO)NC(=O)[C@@H]2CC(O)CN2C(=O)[C@@H](NC(=O)CN2CCN(CCN3CCN(c4ccc(C(=O)NC5C(C)(C)C(Oc6ccc(C#N)c(Cl)c6)C5(C)C)cn4)CC3)CC2)C(C)(C)C)cc1 (stereo partly drawn) [Example 834, N-((1r,3r)-3-(3-chloro-4-cyanophenoxy)-2,2,4,4-tetramethylcyclobutyl)-6-(4-(2-(4-(2-(((S)-1-((2S,4R)-4-hydroxy-2-(((R)-2-hydroxy-1-(4-(4-methylthiazol-5-yl)phenyl)ethyl)carbamoyl)pyrrolidin-1-yl)-3,3-dimethyl-1-oxobutan-2-yl)amino)-2-oxoethyl)piperazin-1-yl)ethyl)piperazin-1-yl)nicotinamide]

SMILES: Cc1ncsc1-c1ccc([C@H](C)NC(=O)[C@@H]2C[C@@H](O)CN2C(=O)[C@@H](NC(=O)COCCCOCCCCCNc2ccc(N3C(=S)N(c4ccc(C#N)c(C(F)(F)F)c4)C(=O)C3(C)C)cn2)C(C)(C)C)cc1 [Example 618, (2S,4R)-1-((S)-2-(2-(3-((5-((5-(3-(4-cyano-3-(trifluoromethyl)phenyl)-5,5-dimethyl-4-oxo-2-thioxoimidazolidin-1-yl)pyridin-2-yl)amino)pentyl)oxy)pro-poxy)acetamido)-3,3-dimethylbutanoyl)-4-hydroxy-N-((S)-1-(4-(4-methylthiazol-5-yl)phenyl)ethyl)pyrrolidine-2-carboxamide]
Dmax (VCaP, read-out: VCaP Dmax (%)): 51 to 70%
DC50 (read-out: VCaP DC50; VCaP cells; Table 36): < 50 nM

DC50 [3]: < 50 nM
Dmax [4]: > 71%
SMILES: Cc1ncsc1-c1ccc([C@H](C)NC(=O)[C@@H]2CC(OC(=O)[C@@H]3CCCN3)CN2C(=O)[C@@H](NC(=O)COCCCCCNc2ccc(C(=O)N[C@H]3C(C)(C)[C@H](Oc4ccc(C#N)c(Cl)c4)C3(C)C)cc2)C(C)(C)C)cc1 (stereo partly shown) [Example 461]

SMILES: Cc1ncoc1-c1ccc(CNC(=O)[C@@H]2C[C@@H](O)CN2C(=O)[C@@H](NC(=O)COCCCCOc2ccc(-c3ccc(N4C(=S)N(c5cnc(C#N)c(C(F)(F)F)c5)C(=O)C4(C)C)cc3)cc2)C(C)(C)C)cc1 [Example 192, (2S,4R)-1-[(2S)-2-(2-{4-[4-(4-{3-[6-cyano-5-(trifluoromethyl)pyridin-3-yl]-5,5-dimethyl-4-oxo-2-sulfanylideneimidazolidin-1-yl}phenyl)phenoxy]butoxy}acetamido)-3,3-dimethylbutanoyl]-4-hydroxy-N-{[4-(4-methyl-1,3-oxazol-5-yl)phenyl]methyl}pyrrolidine-2-carboxamide]
DC50 (VCaP cells; concentration that caused 50% Androgen Receptor degradation; read-out: VCaP DC50): < 50 nM
Dmax (VCaP, VCaP cells; highest percentage of Androgen Receptor degradation; read-out: VCaP Dmax (%)): > 71%

SMILES: CC(C)(C)[C@H](NC(=O)COCCCOCCCCOc1ccc(N2C(=S)N(c3ccc(C#N)c(C(F)(F)F)c3)C(=O)C2(C)C)cc1)C(=O)N1C[C@H](O)C[C@H]1C(=O)NCc1ccc(-c2ocnc2F)cc1 [Example 370]
Dmax (VCaP, read-out: VCaP Dmax (%)): 26 to 50%
DC50 (read-out: VCaP DC50; VCaP cells; Table 34): < 50 nM

SMILES: C[C@H](NC(=O)[C@@H]1C[C@@H](O)CN1C(=O)[C@@H](NC(=O)COCCCOCCCCCOc1ccc(N2C(=S)N(c3ccc(C#N)c(C(F)(F)F)c3)C(=O)C2(C)C)cc1)C(C)(C)C)c1ccc(-c2nccn2C)cc1 [Example 452]
Dmax (VCaP, read-out: VCaP Dmax (%)): < 25%
DC50 (read-out: VCaP DC50; VCaP cells; Table 35): > 501 nM

DC50 [1]: < 50 nM
Dmax [2]: > 71%
SMILES: Cc1ncsc1-c1ccc([C@H](C)NC(=O)C2C[C@@H](O)CN2C(=O)[C@@H](NC(=O)COCCN2CCN(c3ccc(C(=O)N[C@H]4C(C)(C)[C@H](Oc5ccc(C#N)c(Cl)c5)C4(C)C)cn3)C[C@H]2CO)C(C)(C)C)cc1 (stereo partly drawn) [Example 788, N-((1r,3S)-3-(3-chloro-4-cyanophenoxy)-2,2,4,4-tetramethylcyclobutyl)-6-((3S)-4-(2-(2-(((2S)-1-((4R)-4-hydroxy-2-(((S)-1-(4-(4-methylthiazol-5-yl)phenyl)ethyl)carbamoyl)pyrrolidin-1-yl)-3,3-dimethyl-1-oxobutan-2-yl)amino)-2-oxoethoxy)ethyl)-3-(hydroxymethyl)piperazin-1-yl)nicotinamide]
